Drawing on patent publication US10144706B2 (BRISTOL-MYERS SQUIBB COMPANY, priority 2016, dated 2018), this text covers IC50 for 27 molecules.

Structures are written as SMILES.

The target of the first test is T1, PD-1/PD-L1 interaction (PD-1-Ig / PD-L1-His) (Homo sapiens, UniProt Q9NZQ7).
T1 construct: hPDL1(18-239)-TVMV-His; TVMV protease site linker (C); made in house; host or cells: HEK293T
T1 sequence (Q9NZQ7 with tags, fused parts or gaps): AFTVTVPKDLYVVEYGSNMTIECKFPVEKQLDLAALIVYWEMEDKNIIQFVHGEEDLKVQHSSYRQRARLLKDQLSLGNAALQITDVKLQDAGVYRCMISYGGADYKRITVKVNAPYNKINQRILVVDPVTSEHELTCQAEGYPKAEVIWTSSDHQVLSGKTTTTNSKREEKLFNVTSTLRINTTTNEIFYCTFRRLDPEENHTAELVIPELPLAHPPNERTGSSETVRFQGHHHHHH
The experiment in a line: PD-1/PD-L1 Homogenous Time-Resolved Fluorescence (HTRF) binding assay. The note with it: IC50 range class; PD-L1-His 10 nM, PD-1-Ig 20 nM; read-out: Range or IC50. From the text: The ability of the compounds of formula (I) to bind to PD-L1 was investigated using a PD-1/PD-L1 Homogenous Time-Resolved Fluorescence (HTRF) binding assay.
Homogenous Time-Resolved Fluorescence (HTRF) Binding Assay.
The interaction of PD-1 and PD-L1 can be assessed using soluble, purified preparations of the extracellular domains of the two proteins. The PD-1 and PD-L1 protein extracellular domains were expressed as fusion proteins with detection tags, for PD-1, the tag was the Fc portion of Immunoglobulin (PD-1-Ig) and for PD-L1 it was the 6 histidine motif (PD-L1-His). All binding studies were performed in an HTRF assay buffer consisting of dPBS supplemented with 0.1% […] bovine serum albumin and 0.05% (v/v) Tween-20. For the h/PD-L1-His binding assay, inhibitors were pre-incubated with PD-L1-His (10 nM final) for 15 m in 4 μl of assay buffer, followed by addition of PD-1-Ig (20 nM final) in 1 μl of assay buffer and further incubation for 15 m. HTRF detection was achieved using europium crypate-labeled anti-Ig (1 nM final) and allophycocyanin (APC) labeled anti-His (20 nM final). Antibodies were diluted in HTRF detection buffer and 5 μl was dispensed on top of the binding reaction. […] Additional binding assays were established between the human proteins PD-1-Ig/PD-L2-His (20 & 5 nM, respectively) and CD80-His/PD-L1-Ig (100 & 10 nM, respectively). […]
Background: Time-resolved FRET reads energy transfer from a long-lived donor to a nearby acceptor.
On to `Cc1c(OCCCNCCc2cn(C)cn2)cccc1-c1cccc(OCCCN2CC[C@@H](O)C2)c1C` [Example 2043, (R)-1-(3-((2,2′-dimethyl-3′-(3-((2-(1-methyl-1H-imidazol-4-yl)ethyl)amino)propoxy)-[1,1′-biphenyl]-3-yl)oxy)propyl)pyrrolidin-3-ol], for which the 50% inhibitory concentration (IC50) (usually the concentration needed to halve the response being measured) lay within 90.1 to 1000 nM. Turning to `Cc1c(OCCCNCC2CCN(C)CC2)cccc1-c1cccc(OCCCN2CC[C@@H](O)C2)c1C` [Example 2044, (R)-1-(3-((2,2′-dimethyl-3′-(3-(((1-methylpiperidin-4-yl)methyl)amino)propoxy)-[1,1′-biphenyl]-3-yl)oxy)propyl)pyrrolidin-3-ol], the IC50 was in the range of 90.1 to 1000 nM. With `Cc1c(OCCCNC[C@H](O)C(=O)O)cccc1-c1cccc(OCCCN2CC[C@@H](O)C2)c1C` [Example 2045, (S)-2-hydroxy-3-((3-((3′-(3-((R)-3-hydroxypyrrolidin-1-yl)propoxy)-2,2′-dimethyl-[1,1′-biphenyl]-3-yl)oxy)propyl)amino)propanoic acid], the half-maximal inhibitory concentration (IC50) lay within 90.1 to 1000 nM. As for `Cc1c(OCCCNCC(C)(C)CO)cccc1-c1cccc(OCCCN2CC[C@@H](O)C2)c1C` [Example 2046, (R)-1-(3-((3′-(3-((3-hydroxy-2,2-dimethylpropyl)amino)propoxy)-2,2′-dimethyl-[1,1′-biphenyl]-3-yl)oxy)propyl)pyrrolidin-3-ol], the half-inhibitory concentration (IC50) lay in the range of 20.1 to 90 nM.

In the case of `Cc1c(OCCCNC(CO)c2ccncc2)cccc1-c1cccc(OCCCN2CC[C@@H](O)C2)c1C` (stereo partly drawn) [Example 2047, (3R)-1-(3-((3′-(3-((2-hydroxy-1-(pyridin-4-yl)ethyl)amino)propoxy)-2,2′-dimethyl-[1,1′-biphenyl]-3-yl)oxy)propyl)pyrrolidin-3-ol], the IC50 is 90.1 to 1000 nM.

For the molecule `CC(=O)NCCNCCCOc1cccc(-c2cccc(OCCCN3CC[C@@H](O)C3)c2C)c1C` [Example 2048, (R)—N-(2-((3-((3′-(3-(3-hydroxypyrrolidin-1-yl)propoxy)-2,2′-dimethyl-[1,1′-biphenyl]-3-yl)oxy)propyl)amino)ethyl)acetamide], the half-maximal inhibitory concentration (IC50) fell in the range of 20.1 to 90 nM. On the same count and under the same terms, next, `Cc1c(OCCCN(C)Cc2cccnc2)cccc1-c1cccc(OCCCN2CC[C@@H](O)C2)c1C` [Example 2049, (R)-1-(3-((2,2′-dimethyl-3′-(3-(methyl(pyridin-3-ylmethyl)amino)propoxy)-[1,1′-biphenyl]-3-yl)oxy)propyl)pyrrolidin-3-ol]: 90.1 to 1000 nM; `Cc1c(OCCCNCc2cccnc2)cccc1-c1cccc(OCCCN2CC[C@@H](O)C2)c1C` [Example 2050, (R)-1-(3-((2,2′-dimethyl-3′-(3-((pyridin-3-ylmethyl)amino)propoxy)-[1,1′-biphenyl]-3-yl)oxy)propyl)pyrrolidin-3-ol]: 1000 to 10000 nM. On the same count and under the same terms, for `Cc1c(OCCCNC[C@@H](O)CO)cccc1-c1cccc(OCCCN2CC[C@@H](O)C2)c1C` [Example 2052, (R)-3-((3-((3′-(3-((R)-3-hydroxypyrrolidin-1-yl)propoxy)-2,2′-dimethyl-[1,1′-biphenyl]-3-yl)oxy)propyl)amino)propane-1,2-diol] the value was 90.1 to 1000 nM. On the same count and under the same terms, next, `CCCN(CCO)CCCOc1cccc(-c2cccc(OCCCN3CC[C@@H](O)C3)c2C)c1C` [Example 2053, (R)-1-(3-((3′-(3-((2-hydroxyethyl)(propyl)amino)propoxy)-2,2′-dimethyl-[1,1′-biphenyl]-3-yl)oxy)propyl)pyrrolidin-3-ol]: 90.1 to 1000 nM. On to `Cc1c(OCCCN(C)CCC(N)=O)cccc1-c1cccc(OCCCN2CC[C@@H](O)C2)c1C` [Example 2054, (R)-3-((3-((3′-(3-(3-hydroxypyrrolidin-1-yl)propoxy)-2,2′-dimethyl-[1,1′-biphenyl]-3-yl)oxy)propyl)(methyl)amino)propanamide], for which the half-inhibitory concentration (IC50) fell in the range of 20.1 to 90 nM. Same read-out and setting: for `Cc1c(OCCCN[C@@H](CO)C(C)C)cccc1-c1cccc(OCCCN2CC[C@@H](O)C2)c1C` [Example 2055, (R)-1-(3-((3′-(3-(((R)-1-hydroxy-3-methylbutan-2-yl)amino)propoxy)-2,2′-dimethyl-[1,1′-biphenyl]-3-yl)oxy)propyl)pyrrolidin-3-ol] the value was 90.1 to 1000 nM; for `Cc1c(OCCCN[C@H](CO)c2ccccc2)cccc1-c1cccc(OCCCN2CC[C@@H](O)C2)c1C` [Example 2057, (R)-1-(3-((3′-(3-(((S)-2-hydroxy-1-phenylethyl)amino)propoxy)-2,2′-dimethyl-[1,1′-biphenyl]-3-yl)oxy)propyl)pyrrolidin-3-ol], 90.1 to 1000 nM. Turning to `Cc1c(OCCCN[C@H](CO)C(C)C)cccc1-c1cccc(OCCCN2CC[C@@H](O)C2)c1C` [Example 2058, (R)-1-(3-((3′-(3-(((S)-1-hydroxy-3-methylbutan-2-yl)amino)propoxy)-2,2′-dimethyl-[1,1′-biphenyl]-3-yl)oxy)propyl)pyrrolidin-3-ol], the IC50 was 90.1 to 1000 nM. `Cc1c(OCCCNCCn2cc(Cl)cn2)cccc1-c1cccc(OCCCN2CC[C@@H](O)C2)c1C` [Example 2060, (R)-1-(3-((3′-(3-((2-(4-chloro-1H-pyrazol-1-yl)ethyl)amino)propoxy)-2,2′-dimethyl-[1,1′-biphenyl]-3-yl)oxy)propyl)pyrrolidin-3-ol]: the half-maximal inhibitory concentration (IC50) was in the range of 20.1 to 90 nM. On the same count and under the same terms, for `Cc1c(OCCCNCCc2ncn(C)c2Cl)cccc1-c1cccc(OCCCN2CC[C@@H](O)C2)c1C` [Example 2061] the value was 20.1 to 90 nM; for `Cc1c(OCCCN(C)Cc2ccccn2)cccc1-c1cccc(OCCCN2CC[C@@H](O)C2)c1C` [Example 2062, (R)-1-(3-((2,2′-dimethyl-3′-(3-(methyl(pyridin-2-ylmethyl)amino)propoxy)-[1,1′-biphenyl]-3-yl)oxy)propyl)pyrrolidin-3-ol], 20.1 to 90 nM. As for `Cc1c(OCCCN2CCN(CCO)CC2)cccc1-c1cccc(OCCCN2CC[C@@H](O)C2)c1C` [Example 2063, (R)-1-(3-((3′-(3-(4-(2-hydroxyethyl)piperazin-1-yl)propoxy)-2,2′-dimethyl-[1,1′-biphenyl]-3-yl)oxy)propyl)pyrrolidin-3-ol], the IC50 is 20.1 to 90 nM.

Regarding `Cc1c(OCCCN(C)Cc2ccncc2)cccc1-c1cccc(OCCCN2CC[C@@H](O)C2)c1C` [Example 2064, (R)-1-(3-((2,2′-dimethyl-3′-(3-(methyl(pyridin-4-ylmethyl)amino)propoxy)-[1,1′-biphenyl]-3-yl)oxy)propyl)pyrrolidin-3-ol], the IC50 is 20.1 to 90 nM. Take `Cc1c(OCCCNCCc2ccc(N)cc2)cccc1-c1cccc(OCCCN2CC[C@@H](O)C2)c1C` [Example 2065, (R)-1-(3-((3′-(3-((4-aminophenethyl)amino)propoxy)-2,2′-dimethyl-[1,1′-biphenyl]-3-yl)oxy)propyl)pyrrolidin-3-ol]: the 50% inhibitory concentration (IC50) was 20.1 to 90 nM. Consider `Cc1c(OCCCNC2CCN(C)CC2)cccc1-c1cccc(OCCCN2CC[C@@H](O)C2)c1C` [Example 2066, (R)-1-(3-((2,2′-dimethyl-3′-(3-((1-methylpiperidin-4-yl)amino)propoxy)-[1,1′-biphenyl]-3-yl)oxy)propyl)pyrrolidin-3-ol], for which the IC50 was 90.1 to 1000 nM. On the same count and under the same terms, for `Cc1c(OCCCNC2CCN(CCO)CC2)cccc1-c1cccc(OCCCN2CC[C@@H](O)C2)c1C` [Example 2067, (R)-1-(3-((3′-(3-((1-(2-hydroxyethyl)piperidin-4-yl)amino)propoxy)-2,2′-dimethyl-[1,1′-biphenyl]-3-yl)oxy)propyl)pyrrolidin-3-ol] the value was 20.1 to 90 nM; for `Cc1c(OCCCN(CCO)CCO)cccc1-c1cccc(OCCCN2CC[C@@H](O)C2)c1C` [Example 2068, (R)-2,2′-((3-((3′-(3-(3-hydroxypyrrolidin-1-yl)propoxy)-2,2′-dimethyl-[1,1′-biphenyl]-3-yl)oxy)propyl)azanediyl)bis(ethan-1-ol)], 90.1 to 1000 nM. `Cc1c(OCCCN[C@@H](CO)c2ccccc2)cccc1-c1cccc(OCCCN2CC[C@@H](O)C2)c1C` [Example 2069, (R)-1-(3-((3′-(3-(((R)-2-hydroxy-1-phenylethyl)amino)propoxy)-2,2′-dimethyl-[1,1′-biphenyl]-3-yl)oxy)propyl)pyrrolidin-3-ol]: the concentration for half-maximal inhibition (IC50) fell in the range of 90.1 to 1000 nM. Take `Cc1c(OCCCN2CCC(N(C)C)CC2)cccc1-c1cccc(OCCCN2CC[C@@H](O)C2)c1C` [Example 2070, (R)-1-(3-((3′-(3-(4-(dimethylamino)piperidin-1-yl)propoxy)-2,2′-dimethyl-[1,1′-biphenyl]-3-yl)oxy)propyl)pyrrolidin-3-ol]: the IC50 fell in the range of 90.1 to 1000 nM. Regarding `Cc1c(OCCCN[C@@H](CO)Cc2ncn(C)c2Cl)cccc1-c1cccc(OCCCN2CC[C@@H](O)C2)c1C` [Example 2071, (R)-1-(3-((3′-(3-(((R)-1-(5-chloro-1-methyl-1H-imidazol-4-yl)-3-hydroxypropan-2-yl)amino)propoxy)-2,2′-dimethyl-[1,1′-biphenyl]-3-yl)oxy)propyl)pyrrolidin-3-ol], the half-maximal inhibitory concentration (IC50) lay in the range of 90.1 to 1000 nM.

The test is the same for the next values; noted with them: numeric IC50; PD-L1-His 10 nM, PD-1-Ig 20 nM; read-out: Range or IC50.
As for `Cc1c(OCCCN(Cc2ccccn2)Cc2ccccn2)cccc1-c1cccc(OCCCN2CC[C@@H](O)C2)c1C` [Example 2056, (R)-1-(3-((3′-(3-(bis(pyridin-2-ylmethyl)amino)propoxy)-2,2′-dimethyl-[1,1′-biphenyl]-3-yl)oxy)propyl)pyrrolidin-3-ol], the IC50 was 3180 nM.
